Laboratory results taken from PubChem BioAssay AID1963446 (Molecular Pharmacology Branch, DTP, NCI, 2024).
pIC50: −log10 of the molar value. Several values for one entry are separate records, joined by “and”; a condition that tells them apart may be missing. Equal values may be shown once. One block for each molecule: values may come before it.

Tested on: 993429-296-R-J1-PDC complex spheroid growth, percent test/control
Experiment: Anticancer human tumor 993429-296-R-J1-PDC patient-derived uterine sarcoma cell line growth inhibition [Asc]
Settings: for viability, T/C: stronger effect = lower value
Method in brief: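 Tumor cells were grown as complex spheroids with human endothelial cells (HUVEC) and human mesenchymal stem cells as stroma. Agents were tested alone and in combination, in half-log steps down from the clinical Cmax, or from 10 microM where Cmax was unknown.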

[1] = curve of first compound, second compound 0.01 µM
[2] = curve of first compound, second compound 0.0316 µM
[3] = curve of first compound, second compound 0.1 µM
[4] = curve of first compound, second compound 0.316 µM
[5] = curve of first compound, second compound 1 µM
[6] = second compound 0.01 µM, first compound 0.0316 µM
[7] = second compound 0.01 µM, first compound 0.1 µM
[8] = second compound 0.0316 µM, first compound 0.0316 µM
[9] = second compound 0.0316 µM, first compound 0.1 µM
[10] = second compound 0.1 µM, first compound 0.0316 µM
[11] = second compound 0.1 µM, first compound 0.1 µM
[12] = second compound 0.316 µM, first compound 0.0316 µM
[13] = second compound 0.316 µM, first compound 0.1 µM
[14] = second compound 1 µM, first compound 0.0316 µM
[15] = second compound 1 µM, first compound 0.1 µM
[16] = second compound 0.01 µM, first compound 0.316 µM
[17] = second compound 0.01 µM, first compound 1 µM
[18] = second compound 0.01 µM, first compound 3.16 µM
[19] = second compound 0.01 µM, first compound 10 µM
[20] = second compound 0.0316 µM, first compound 0.316 µM
[21] = second compound 0.0316 µM, first compound 1 µM
[22] = second compound 0.0316 µM, first compound 3.16 µM
[23] = second compound 0.0316 µM, first compound 10 µM
[24] = second compound 0.1 µM, first compound 0.316 µM
[25] = second compound 0.1 µM, first compound 1 µM
[26] = second compound 0.1 µM, first compound 3.16 µM
[27] = second compound 0.1 µM, first compound 10 µM
[28] = second compound 0.316 µM, first compound 0.316 µM
[29] = second compound 0.316 µM, first compound 1 µM
[30] = second compound 0.316 µM, first compound 3.16 µM
[31] = second compound 0.316 µM, first compound 10 µM
[32] = second compound 1 µM, first compound 0.316 µM
[33] = second compound 1 µM, first compound 1 µM
[34] = second compound 1 µM, first compound 3.16 µM
[35] = second compound 1 µM, first compound 10 µM
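Note: spheroids exposed to compounds for seven days.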

- pIC50 (curve of first compound, second compound 0.03 µM): < 6.00
- pIC50 (curve of first compound, second compound 0.0949 µM): < 6.00
- pIC50 (curve of first compound, second compound 0.3 µM): < 6.00
- pIC50 (curve of first compound, second compound 0.949 µM): < 6.00
- pIC50 (curve of first compound, second compound 3 µM): 6.54
Structure (SMILES): CNC(C)C(=O)NC1CN(S(=O)(=O)c2cccc(S(=O)(=O)N3CCC4CCC(C(=O)NC(c5ccccc5)c5ccccc5)N4C(=O)C(NC(=O)C(C)NC)C3)c2)CCC2CCC(C(=O)NC(c3ccccc3)c3ccccc3)N2C1=O (configuration not stated) + CCN1C(C(=O)NC23CCC(C(=O)O)(CC2)CC3)C(c2cccc(Cl)c2F)C2(C(=O)Nc3cc(Cl)ccc32)C12CCCCC2
- viability, T/C (second compound 0.03 µM, first compound 0.00316 µM): 71.4%
- viability, T/C (second compound 0.03 µM, first compound 0.01 µM): 62.7%
- viability, T/C (second compound 0.03 µM, first compound 0.0316 µM): 57.5%
- viability, T/C (second compound 0.03 µM, first compound 0.1 µM): 57%
- viability, T/C (second compound 0.03 µM, first compound 0.316 µM): 58%
- viability, T/C (second compound 0.03 µM, first compound 1 µM): 51.7%
- viability, T/C (second compound 0.0949 µM, first compound 0.00316 µM): 61.2%
- viability, T/C (second compound 0.0949 µM, first compound 0.01 µM): 69.8%
- viability, T/C (second compound 0.0949 µM, first compound 0.0316 µM): 65%
- viability, T/C (second compound 0.0949 µM, first compound 0.1 µM): 68.7%
- viability, T/C (second compound 0.0949 µM, first compound 0.316 µM): 53.7%
- viability, T/C (second compound 0.0949 µM, first compound 1 µM): 57.3%
- viability, T/C (second compound 0.3 µM, first compound 0.00316 µM): 64.9%
- viability, T/C (second compound 0.3 µM, first compound 0.01 µM): 79.5%
- viability, T/C (second compound 0.3 µM, first compound 0.0316 µM): 66.3%
- viability, T/C (second compound 0.3 µM, first compound 0.1 µM): 53.9%
- viability, T/C (second compound 0.3 µM, first compound 0.316 µM): 62.6%
- viability, T/C (second compound 0.3 µM, first compound 1 µM): 59.4%
- viability, T/C (second compound 0.949 µM, first compound 0.00316 µM): 77.3%
- viability, T/C (second compound 0.949 µM, first compound 0.01 µM): 64.3%
- viability, T/C (second compound 0.949 µM, first compound 0.0316 µM): 62.7%
- viability, T/C (second compound 0.949 µM, first compound 0.1 µM): 65.2%
- viability, T/C (second compound 0.949 µM, first compound 0.316 µM): 55.9%
- viability, T/C (second compound 0.949 µM, first compound 1 µM): 61.1%
- viability, T/C (second compound 3 µM, first compound 0.00316 µM): 77.9%
- viability, T/C (second compound 3 µM, first compound 0.01 µM): 66.8%
- viability, T/C (second compound 3 µM, first compound 0.0316 µM): 59.2%
- viability, T/C (second compound 3 µM, first compound 0.1 µM): 48.3%
- viability, T/C (second compound 3 µM, first compound 0.316 µM): 53.5%
- viability, T/C (second compound 3 µM, first compound 1 µM): 47.7%

- pIC50 [1]: 5.68
- pIC50 [2]: 5.76
- pIC50 [3]: 5.95
- pIC50 [4]: 6.39
- pIC50 [5]: 6.04
Structure (SMILES): O=C(c1cc(Cc2n[nH]c(=O)c3ccccc23)ccc1F)N1CCN(C(=O)C2CC2)CC1 + CNC(C)C(=O)NC1CN(S(=O)(=O)c2cccc(S(=O)(=O)N3CCC4CCC(C(=O)NC(c5ccccc5)c5ccccc5)N4C(=O)C(NC(=O)C(C)NC)C3)c2)CCC2CCC(C(=O)NC(c3ccccc3)c3ccccc3)N2C1=O
- viability, T/C [6]: 63.2%
- viability, T/C [7]: 73.3%
- viability, T/C [16]: 64.6%
- viability, T/C [17]: 64.5%
- viability, T/C [18]: 41.8%
- viability, T/C [19]: 17.7%
- viability, T/C [8]: 61.5%
- viability, T/C [9]: 56.2%
- viability, T/C [20]: 59.5%
- viability, T/C [21]: 59.6%
- viability, T/C [22]: 40%
- viability, T/C [23]: 12.4%
- viability, T/C [10]: 53.4%
- viability, T/C [11]: 63.5%
- viability, T/C [24]: 54.8%
- viability, T/C [25]: 51.4%
- viability, T/C [26]: 36.3%
- viability, T/C [27]: 11.6%
- viability, T/C [12]: 60.2%
- viability, T/C [13]: 55.9%
- viability, T/C [28]: 43.6%
- viability, T/C [29]: 45.5%
- viability, T/C [30]: 39%
- viability, T/C [31]: 14.1%
- viability, T/C [14]: 53.2%
- viability, T/C [15]: 48%
- viability, T/C [32]: 59.5%
- viability, T/C [33]: 48.7%
- viability, T/C [34]: 28.1%
- viability, T/C [35]: 10.7%

- pIC50 [1]: 5.33
- pIC50 [2]: 5.34
- pIC50 [3]: 5.58
- pIC50 [4]: 5.48
- pIC50 [5]: > 7.50
Structure (SMILES): C#Cc1c(F)ccc2cc(O)cc(-c3ncc4c(N5CC6CCC(C5)N6)nc(OCC56CCCN5CC(F)C6)nc4c3F)c12 (configuration not stated) + CNC(C)C(=O)NC1CN(S(=O)(=O)c2cccc(S(=O)(=O)N3CCC4CCC(C(=O)NC(c5ccccc5)c5ccccc5)N4C(=O)C(NC(=O)C(C)NC)C3)c2)CCC2CCC(C(=O)NC(c3ccccc3)c3ccccc3)N2C1=O
- viability, T/C [6]: 71.7%
- viability, T/C [7]: 67.2%
- viability, T/C [16]: 69.5%
- viability, T/C [17]: 57.3%
- viability, T/C [18]: 64.3%
- viability, T/C [19]: 25.6%
- viability, T/C [8]: 58.8%
- viability, T/C [9]: 66.6%
- viability, T/C [20]: 56.5%
- viability, T/C [21]: 67.4%
- viability, T/C [22]: 60.5%
- viability, T/C [23]: 28%
- viability, T/C [10]: 61%
- viability, T/C [11]: 62.1%
- viability, T/C [24]: 67.1%
- viability, T/C [25]: 61.7%
- viability, T/C [26]: 47.7%
- viability, T/C [27]: 28.4%
- viability, T/C [12]: 45.2%
- viability, T/C [13]: 55.8%
- viability, T/C [28]: 43.3%
- viability, T/C [29]: 48.8%
- viability, T/C [30]: 64.7%
- viability, T/C [31]: 16.3%
- viability, T/C [14]: 49.9%
- viability, T/C [15]: 50.2%
- viability, T/C [32]: 39.5%
- viability, T/C [33]: 58%
- viability, T/C [34]: 50.2%
- viability, T/C [35]: 25%

More lines, now with the values behind:

Structure (SMILES): COc1c(OCCCN2CCOCC2)ccc2c3n(c(=NC(=O)c4cnc(N)nc4)nc12)CCN3
- viability, T/C (compound 0.00316 µM): 91.3% and 101% and 95.5%
- viability, T/C (compound 0.01 µM): 76.7% and 74.9% and 85.9%
- viability, T/C (compound 0.0316 µM): 32.1% and 39% and 47.7%
- viability, T/C (compound 0.1 µM): 7.79% and 8.14% and 20.2%
- viability, T/C (compound 0.316 µM): 3.91% and 3.64% and 6.96%
- viability, T/C (compound 1 µM): 1.4% and 1.43% and 2.5%
- pIC50 (curve of compound): 7.70 and 7.67 and 7.50

Structure (SMILES): NC1CCC(NC2CC2c2ccccc2)CC1 (configuration not stated) + CNC(C)C(=O)NC1CN(S(=O)(=O)c2cccc(S(=O)(=O)N3CCC4CCC(C(=O)NC(c5ccccc5)c5ccccc5)N4C(=O)C(NC(=O)C(C)NC)C3)c2)CCC2CCC(C(=O)NC(c3ccccc3)c3ccccc3)N2C1=O
- pIC50 [1]: < 7.00
- pIC50 [2]: < 7.00
- pIC50 [3]: < 7.00
- pIC50 [4]: < 7.00
- pIC50 [5]: > 9.50
- viability, T/C (second compound 0.01 µM, first compound 0.000316 µM): 63.9%
- viability, T/C (second compound 0.01 µM, first compound 0.001 µM): 62.7%
- viability, T/C (second compound 0.01 µM, first compound 0.00316 µM): 57.3%
- viability, T/C (second compound 0.01 µM, first compound 0.01 µM): 63.6%
- viability, T/C [6]: 57.8%
- viability, T/C [7]: 63.4%
- viability, T/C (second compound 0.0316 µM, first compound 0.000316 µM): 53.3%
- viability, T/C (second compound 0.0316 µM, first compound 0.001 µM): 56.3%
- viability, T/C (second compound 0.0316 µM, first compound 0.00316 µM): 48.5%
- viability, T/C (second compound 0.0316 µM, first compound 0.01 µM): 46.5%
- viability, T/C [8]: 57.7%
- viability, T/C [9]: 57.9%
- viability, T/C (second compound 0.1 µM, first compound 0.000316 µM): 53.1%
- viability, T/C (second compound 0.1 µM, first compound 0.001 µM): 53.5%
- viability, T/C (second compound 0.1 µM, first compound 0.00316 µM): 58.6%
- viability, T/C (second compound 0.1 µM, first compound 0.01 µM): 54.9%
- viability, T/C [10]: 58.3%
- viability, T/C [11]: 56%
- viability, T/C (second compound 0.316 µM, first compound 0.000316 µM): 59.7%
- viability, T/C (second compound 0.316 µM, first compound 0.001 µM): 51.5%
- viability, T/C (second compound 0.316 µM, first compound 0.00316 µM): 48.1%
- viability, T/C (second compound 0.316 µM, first compound 0.01 µM): 50.2%
- viability, T/C [12]: 53.2%
- viability, T/C [13]: 49.8%
- viability, T/C (second compound 1 µM, first compound 0.000316 µM): 45.9%
- viability, T/C (second compound 1 µM, first compound 0.001 µM): 41.7%
- viability, T/C (second compound 1 µM, first compound 0.00316 µM): 39.7%
- viability, T/C (second compound 1 µM, first compound 0.01 µM): 41.1%
- viability, T/C [14]: 47.9%
- viability, T/C [15]: 28.1%
